The text below walks through data of patent publication US20110150767A1, “ALPHA-SUBSTITUTED AND ALPHA-UNSUBSTITUTED AROMATIC AMINO ACID DERIVATIVES AND COMPOSITIONS THEREOF FOR USE TO TREAT, DIAGNOSE, OR MONITOR A MEDICAL CONDITION” (priority 2009, published 2011).

For assay [1], the target named is T1, human L-type amino acid transporter 2 (LAT2; S2-hLAT2 cells) (Homo sapiens, UniProt Q9UHI5).
T1 construct: expressed in transfected cells; host or cells: S2 cells (S2-hLAT2 / S2-LAT2); mammalian cell line described in Morimoto et al., J Pharmacol Sci 2008, 108, 505-516
T1 sequence (Q9UHI5 1-535): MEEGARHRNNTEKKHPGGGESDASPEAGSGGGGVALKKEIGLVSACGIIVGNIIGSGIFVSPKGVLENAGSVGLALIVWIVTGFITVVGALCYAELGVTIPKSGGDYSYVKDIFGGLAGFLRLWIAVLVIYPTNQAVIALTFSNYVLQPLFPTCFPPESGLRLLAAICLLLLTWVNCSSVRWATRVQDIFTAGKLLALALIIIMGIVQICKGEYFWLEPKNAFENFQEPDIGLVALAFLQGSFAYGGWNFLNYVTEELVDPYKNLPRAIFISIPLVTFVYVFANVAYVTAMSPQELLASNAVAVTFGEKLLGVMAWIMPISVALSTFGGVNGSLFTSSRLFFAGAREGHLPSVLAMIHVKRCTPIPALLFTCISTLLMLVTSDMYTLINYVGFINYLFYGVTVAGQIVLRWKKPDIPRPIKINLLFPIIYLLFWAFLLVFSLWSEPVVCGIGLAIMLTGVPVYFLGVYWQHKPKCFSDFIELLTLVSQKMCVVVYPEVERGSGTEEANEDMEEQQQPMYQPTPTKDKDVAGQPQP
T1 sequence (P08195 1-529 partner): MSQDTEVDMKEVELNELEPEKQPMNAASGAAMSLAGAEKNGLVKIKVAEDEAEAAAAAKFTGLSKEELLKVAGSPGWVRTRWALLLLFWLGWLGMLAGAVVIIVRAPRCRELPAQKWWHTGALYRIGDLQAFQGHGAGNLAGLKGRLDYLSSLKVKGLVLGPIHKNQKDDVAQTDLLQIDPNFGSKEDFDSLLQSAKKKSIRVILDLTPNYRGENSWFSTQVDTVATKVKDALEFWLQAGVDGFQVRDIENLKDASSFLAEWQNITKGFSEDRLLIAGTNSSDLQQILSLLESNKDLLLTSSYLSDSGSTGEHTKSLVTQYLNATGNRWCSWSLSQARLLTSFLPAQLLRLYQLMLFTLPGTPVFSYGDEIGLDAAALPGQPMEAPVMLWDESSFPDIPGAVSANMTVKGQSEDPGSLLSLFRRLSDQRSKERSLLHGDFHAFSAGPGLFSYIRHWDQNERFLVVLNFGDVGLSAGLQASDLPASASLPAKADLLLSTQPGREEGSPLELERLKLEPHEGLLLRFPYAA
In words: Inhibition of L-[14C]leucine uptake in S2-LAT2 cells. The note with it: inhibition of 1.0 μM L-[14C]leucine uptake, 1.0 min, 37° C., NI = no inhibition at 100 μM. The assay is classed as cell-based. Here is the method: (§1) The establishment and characterization of mammalian cell lines expressing human L-type amino acid transporterss (i.e. S2-hLAT1 and S2-hLAT2) has been previously described (Morimoto et al., Journal of Pharmacological Sciences, 2008, 108, 505-516).
(§2) General test procedures are as follows: All test compounds were dissolved in dimethyl sulfoxide (DMSO) to prepare stock solutions at the concentrations of 0.05, 0.5, 5.0 and 50 mM; next, these stock solutions were used and diluted with uptake solution to make final test concentrations of 0.10, 1.00, 10.0 and 100 μM, respectively. Therefore, all compounds used for uptake experiment were in uptake solution containing 0.2% DMSO; experiments are performed in triplicate for each concentration. For control uptake, only DMSO was added into the uptake solution to a final concentration of 0.2%.
(§3) S2-LAT1 and S2-LAT2 cells were seeded (1.3×10^5 cells/well) into 24-well plates and cultured at 33° C. (5% CO2) for 2-3 days until confluent (90%-100% confluence). Uptake experiments were performed at 37° C. The culture medium was removed and washed 3 times with uptake solution (37° C.; Hank's Na^+ free buffer consisting of 125 mM choline chloride, 4.8 mM KCl, 1.3 mM CaCl2, 1.2 mM MgCl2, 25.0 mM HEPES, and 5.0 mM Tris, pH 7.4, supplemented with D-glucose (5.6 mM). The cells were equilibrated in uptake solution (300 μL; 37° C.) for 12 min. The equilibrated solution was removed and uptake solution containing radio-labeled compound (1.0 μM L-[^14C] Leucine) with or without test compound (300 μL) was added to the cells (1.0 min). The test solution was removed and the cells washed 3 times with ice-cold uptake solution. The cells are then solubilized with 0.1N NaOH (0.5 mL) and transferred to scintillation vials. Liquid scintillation fluid (3.0 mL; aquasol-2) was added, mixed and substrate accumulation was measured by counting radioactivity via liquid scintillation counting (LSC; LSC6100, Aloka, Tokyo). The uptake value and % of inhibition were calculated to afford IC50 values.

For assay [2], the target named is T2, human L-type amino acid transporter 1 (LAT1; S2-hLAT1 cells) (Homo sapiens, UniProt Q01650).
T2 construct: expressed in transfected cells; host or cells: S2 cells (S2-hLAT1 / S2-LAT1); mammalian cell line described in Morimoto et al., J Pharmacol Sci 2008, 108, 505-516
In words: Inhibition of L-[14C]leucine uptake in S2-LAT1 cells. The assay is classed as cell-based. The following applies: inhibition of 1.0 μM L-[14C]leucine uptake, 1.0 min, 37° C., NI = no inhibition at 100 μM. Here is the method:
as §1, §2, §3

T2 sequence (Q01650 whole entry, one chain of several): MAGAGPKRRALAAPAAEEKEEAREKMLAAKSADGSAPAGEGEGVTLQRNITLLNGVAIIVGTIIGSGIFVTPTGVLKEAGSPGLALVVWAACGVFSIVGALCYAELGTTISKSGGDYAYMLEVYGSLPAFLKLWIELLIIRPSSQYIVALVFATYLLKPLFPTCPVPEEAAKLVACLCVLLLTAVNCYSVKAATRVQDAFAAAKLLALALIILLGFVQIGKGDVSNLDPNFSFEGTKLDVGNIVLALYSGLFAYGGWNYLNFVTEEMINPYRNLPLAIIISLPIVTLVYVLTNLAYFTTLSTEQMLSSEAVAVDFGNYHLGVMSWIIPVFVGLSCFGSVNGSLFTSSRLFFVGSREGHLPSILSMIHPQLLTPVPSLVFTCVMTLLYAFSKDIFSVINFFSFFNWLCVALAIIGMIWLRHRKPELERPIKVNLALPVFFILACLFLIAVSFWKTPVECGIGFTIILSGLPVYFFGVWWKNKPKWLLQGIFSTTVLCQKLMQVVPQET

Take `CC(N)(Cc1cc(Cl)c(OCc2ccc3c(c2)OCO3)c(Cl)c1)C(=O)O` (racemic) [compound 144]: the IC50 in assay [1] and in assay [2] was above 100 µM each time.
In assay [1], `CC(N)(Cc1cc(Cl)c(OCc2ccc(C(F)(F)F)cc2)c(Cl)c1)C(=O)O` (racemic) [compound 145] displayed a concentration for half-maximal inhibition (IC50) above 100 µM.
For the compound `COc1ccc(COc2c(Cl)cc(CC(C)(N)C(=O)O)cc2Cl)cc1` (racemic) [compound 146], the results for the IC50 in assay [1] and in assay [2] were 16.4 µM and 6.7 µM, respectively.
Take `COc1cccc(COc2c(Cl)cc(CC(C)(N)C(=O)O)cc2Cl)c1` (racemic) [compound 147]: the 50% inhibitory concentration (IC50) in assay [1] and in assay [2] was above 100 µM throughout.
Take `COc1ccccc1COc1c(Cl)cc(CC(C)(N)C(=O)O)cc1Cl` (racemic) [compound 148]: the 50% inhibitory concentration (IC50) in assay [1] and in assay [2] was above 100 µM each time.
With `COc1cccc(COc2c(Cl)cc(CC(C)(N)C(=O)O)cc2Cl)c1OC` (racemic) [compound 149], the concentration for half-maximal inhibition (IC50) in assay [1] and in assay [2] was above 100 µM throughout.
`COc1ccc(COc2c(Cl)cc(CC(C)(N)C(=O)O)cc2Cl)cc1OC` (racemic) [compound 150]: the IC50 in assay [1] and in assay [2] was above 100 µM throughout.
On to `COc1cc(COc2c(Cl)cc(CC(C)(N)C(=O)O)cc2Cl)cc(OC)c1OC` (racemic) [compound 151], for which the IC50 in assay [1] and in assay [2] was above 100 µM each time.
Turning to `CC(N)(Cc1cc(Cl)c(OCc2ccncc2)c(Cl)c1)C(=O)O` (racemic) [compound 152], the IC50 in assay [1] and in assay [2] was above 100 µM in each case.
With `N[C@@H](Cc1cc(I)c(OCCc2ccc(OC(F)(F)F)cc2)c(I)c1)C(=O)O` [compound 33], the 50% inhibitory concentration (IC50) in assay [1] and in assay [2] was above 100 µM each time.
Turning to `N[C@@H](Cc1cc(I)c(OCC(=O)c2ccccc2)c(I)c1)C(=O)O` [compound 34], the IC50 amounted to 47.9 µM in assay [1] and 11.9 µM in assay [2].
On the same counts, the results for `COC(COc1c(I)cc(C[C@H](N)C(=O)O)cc1I)c1ccccc1` (some centres unmarked) [compound 35] are above 100 µM and 8.8 µM.
The like results for `N[C@@H](Cc1cc(I)c(OCCc2ccc([N+](=O)[O-])cc2)c(I)c1)C(=O)O` [compound 36] were, in that order, above 100 µM and 28.2 µM.
Take `N[C@@H](Cc1cc(I)c(OCc2ccc([N+](=O)[O-])cc2)c(I)c1)C(=O)O` [compound 37]: the half-maximal inhibitory concentration (IC50) in assay [1] came out at 8.2 µM; in assay [2], 11.5 µM.
The like results for `COc1ccc(COc2c(I)cc(C[C@H](N)C(=O)O)cc2I)c(OC)c1` [compound 41] were, in that order, above 100 µM and 5 µM.
As to `COc1cc(Cl)ccc1COc1c(I)cc(C[C@H](N)C(=O)O)cc1I` [compound 42], the IC50 in assay [1] was above 100 µM; in assay [2] it was 17.7 µM.
As for `COc1ccc(COc2c(I)cc(C[C@H](N)C(=O)O)cc2I)c(OC)c1OC` [compound 43], the IC50 is above 100 µM in assay [1] and 23.6 µM in assay [2].
Turning to `COc1ccc(COc2c(I)cc(C[C@H](N)C(=O)O)cc2I)c(C)c1C` [compound 44], the values for the half-inhibitory concentration (IC50) in assay [1] and in assay [2] were above 100 µM and 7.7 µM, respectively.
The like results for `COc1cc(COc2c(I)cc(C[C@H](N)C(=O)O)cc2I)cc(OC)c1OC` [compound 45] were, in that order, above 100 µM and 15 µM.
The like results for `CCOc1ccc(COc2c(I)cc(C[C@H](N)C(=O)O)cc2I)c(OCC)c1` [compound 48] were, in that order, above 100 µM and 17.2 µM.
For `CCOc1ccc(COc2c(I)cc(C[C@H](N)C(=O)O)cc2I)cc1OCC` [compound 49], the values for the IC50 in assay [1] and in assay [2] were above 100 µM and 5.5 µM, respectively.
Regarding `N[C@@H](Cc1cc(I)c(OCc2ccc3c(c2)OCO3)c(I)c1)C(=O)O` [compound 50], the values for the concentration for half-maximal inhibition (IC50) in assay [1] and in assay [2] were above 100 µM and 24.1 µM, respectively.
On the same counts, the results for `N[C@@H](Cc1cc(I)c(OCc2ccc(Cl)cc2)c(I)c1)C(=O)O` [compound 51] are 29.5 µM and 10.4 µM.
Regarding `COc1ccc(CCOc2c(Br)cc(C[C@H](N)C(=O)O)cc2Br)cc1` [compound 52], the figures for the IC50 in assay [1] and in assay [2] were above 100 µM and 6.8 µM, respectively.
Take `COc1cccc(CCOc2c(Br)cc(C[C@H](N)C(=O)O)cc2Br)c1` [compound 53]: the IC50 was above 100 µM in assay [1] and 6.3 µM in assay [2].
Regarding `COc1ccccc1CCOc1c(Br)cc(C[C@H](N)C(=O)O)cc1Br` [compound 54], the IC50 in assay [1] is above 100 µM; in assay [2], 5.4 µM.
Take `COc1ccccc1COc1c(Br)cc(C[C@H](N)C(=O)O)cc1Br` [compound 55]: the 50% inhibitory concentration (IC50) is above 100 µM in assay [1] and 10.2 µM in assay [2].
`COc1cccc(COc2c(Br)cc(C[C@H](N)C(=O)O)cc2Br)c1` [compound 56]: the IC50 is above 100 µM in assay [1] and 67.1 µM in assay [2].
For the compound `COc1ccc(COc2c(Br)cc(C[C@H](N)C(=O)O)cc2Br)cc1` [compound 57], the values for the IC50 in assay [1] and in assay [2] were 86.5 µM and 16.4 µM, respectively.
With `N[C@@H](Cc1cc(Br)c(OCCc2ccc(C(F)(F)F)cc2)c(Br)c1)C(=O)O` [compound 58], the IC50 in assay [1] is above 100 µM; in assay [2] it was 43.2 µM.
Consider `N[C@@H](Cc1cc(Br)c(OCCc2cccc(C(F)(F)F)c2)c(Br)c1)C(=O)O` [compound 59], for which the IC50 is above 100 µM in assay [1] and 31.8 µM in assay [2].
Consider `N[C@@H](Cc1cc(Br)c(OCCc2ccccc2C(F)(F)F)c(Br)c1)C(=O)O` [compound 60], for which the IC50 in assay [1] and in assay [2] was above 100 µM throughout.
`N[C@@H](Cc1cc(Br)c(OCc2ccccc2C(F)(F)F)c(Br)c1)C(=O)O` [compound 61]: the IC50 in assay [1] and in assay [2] was above 100 µM in each case.
For the compound `N[C@@H](Cc1cc(Cl)c(OCCc2ccccc2)c(Cl)c1)C(=O)O` [compound 122], the 50% inhibitory concentration (IC50) in assay [1] is above 100 µM; in assay [2], 50.7 µM.
The like results for `COc1ccc(COc2c(Cl)cc(C[C@H](N)C(=O)O)cc2Cl)cc1OC` [compound 129] were, in that order, above 100 µM and 17.8 µM.
On to `N[C@@H](Cc1cc(Cl)c(OCc2ccc3c(c2)OCO3)c(Cl)c1)C(=O)O` [compound 130], for which the results for the IC50 in assay [1] and in assay [2] were 27.3 µM and 4.2 µM, respectively.
As to `COc1ccc(COc2c(Cl)cc(C[C@H](N)C(=O)O)cc2Cl)cc1[N+](=O)[O-]` [compound 131], the IC50 in assay [1] was 126 µM; in assay [2], 8.4 µM.
The like results for `COc1cccc(COc2c(Cl)cc(C[C@H](N)C(=O)O)cc2Cl)c1OC` [compound 132] were, in that order, above 100 µM and 28.2 µM.
Turning to `COc1ccc(COc2c(Cl)cc(C[C@H](N)C(=O)O)cc2Cl)c(OC)c1` [compound 133], the 50% inhibitory concentration (IC50) in assay [1] was 5.5 µM; in assay [2] it was 0.8 µM.
